Results: patent US20100168451A1, “PREPARATIVE METHOD OF DIHYDROCUCURBITACIN F-25-O-ACETATE AND THE USE THEREOF IN THE MANUFACTURE OF MEDICAMENTS FOR TREATING CANCERS” (priority 2007, published 2010)
Converted amounts (≈) assume the structure as drawn. Like-named read-outs stand apart in the source and are kept apart here.

Key:
[1] = tested on: HL60 human leukemia cell strain; assay: modified MTT in vitro screening, HL60; assay type: cell-based
Source text: (§1) 1. Screening research in vitro, employing modified MTT of anticancer substance activity. Cancer Cell Strain: [table]

[2] = tested on: A549 human lung cancer cell strain; assay: modified MTT in vitro screening, A549; assay type: cell-based; conditions: for IC50: A549
Source text: as §1

[3] = tested on: SGC-7901 human gastric cancer cell strain; assay: modified MTT in vitro screening, SGC-7901; assay type: cell-based
Source text: as §1

[4] = tested on: Bel-7402 human hepatic cancer cell strain; assay: modified MTT in vitro screening, Bel-7402; assay type: cell-based
Source text: as §1

[5] = tested on: SMMC-7721 human hepatic cancer cell strain; assay: modified MTT in vitro screening, SMMC-7721; assay type: cell-based
Source text: as §1

[6] = tested on: HEP-2 human laryngeal cancer cell strain; assay: modified MTT in vitro screening, HEP-2; assay type: cell-based
Source text: as §1

[7] = tested on: GLC-15 human lung cancer cell strain; assay: modified MTT in vitro screening, GLC-15; assay type: cell-based
Source text: as §1

[8] = tested on: PC-3 human prostate cancer cell strain; assay: modified MTT in vitro screening, PC-3; assay type: cell-based
Source text: as §1

mouse H22 liver cancer = assay: curative effect on mouse H22 liver cancer in vivo
Experimental: (§2) After inoculating Kunming murine for H22 hepatic cancer and murine Lewis lung cancer, three kinds of preparation, i.e., suspension, emulsion, and lyophilized preparation, are administrated in three different ways of administration comprising gastric perfusion, intraperitoneal injection and intravenous injection, and the administration dose is high, middle and low respectively. Then the curative effect is compared with positive control group and the tumour inhibition efficiency is calculated, and the results are shown as follows: […]

mouse Lewis lung cancer = assay: curative effect on mouse Lewis lung cancer in vivo
Experimental: as §2

[9] = mouse, in vivo
Experimental: as §2

[10] = animal body weight, Lewis lung cancer mice; assay type: in vivo, mouse
Source text: After inoculating Kunming murine for H22 hepatic cancer and murine Lewis lung cancer, three kinds of preparation, i.e., suspension, emulsion, and lyophilized preparation, are administrated in three different ways of administration comprising gastric perfusion, intraperitoneal injection and intravenous injection, and the administration dose is high, middle and low respectively.

[11] = Homo sapiens, read-out: Ic 50 for the growth of tumour cells
[12] = emulsion, intravenous, 5 mg/kg/d ivx10qd
[13] = emulsion, intravenous, 10 mg/kg/d ivx10qd
[14] = emulsion, intravenous, 15 mg/kg/d ivx10qd
[15] = lyophilized preparation, intravenous, 5 mg/kg/d ivx10qd
[16] = lyophilized preparation, intravenous, 10 mg/kg/d ivx10qd
[17] = lyophilized preparation, intravenous, 15 mg/kg/d ivx10qd
[18] = suspension, gastric perfusion, 30 mg/kg/d igx10qd
[19] = suspension, gastric perfusion, 60 mg/kg/d igx10qd
[20] = suspension, gastric perfusion, 90 mg/kg/d igx10qd
[21] = suspension, intraperitoneal administration (igx10qd), 30 mg/kg/d
[22] = suspension, intraperitoneal administration (igx10qd), 60 mg/kg/d
[23] = suspension, intraperitoneal administration (igx10qd), 90 mg/kg/d
[24] = mouse, in vivo, iv, 5 mg/kg/day
[25] = mouse, in vivo, iv, 10 mg/kg/day
[26] = mouse, in vivo, iv, 15 mg/kg/day
[27] = Table VI, 7 mg/kg/d Ipx2, the first, third days

## CC(=O)OC(C)(C)CCC(=O)[C@](C)(O)[C@H]1[C@H](O)C[C@@]2(C)[C@@H]3CC=C4[C@@H](C[C@H](O)[C@@H](O)C4(C)C)[C@]3(C)C(=O)C[C@]12C [Curcurbitacin IIa, dihydrocucurbitacin F-25-O-acetate]
[1]; Homo sapiens, HL-60, read-out: Ic 50 for the growth of tumour cells
  IC50: 43.2 µg/mL (≈ 76.8 µM)
[2]; human lung cancer cells, read-out: Ic 50 for growth of the human lung cancer cells
  IC50: 1.5 µg/mL (≈ 2.67 µM)
[2]; [11]
  IC50: 1.5 µg/mL (≈ 2.67 µM)
[3]; [11]
  IC50: 8.71 µg/mL (≈ 15.5 µM)
[4]; [11]
  IC50: > 100 µg/mL
[5]; [11]
  IC50: 22.3 µg/mL (≈ 39.6 µM)
[6]; Homo sapiens, HEp-2, read-out: Ic 50 for the growth of tumour cells
  IC50: 15.8 µg/mL (≈ 28.1 µM)
[7]; [11]
  IC50: 14.6 µg/mL (≈ 25.9 µM)
[8]; [11]
  IC50: 10.1 µg/mL (≈ 17.9 µM)
Mouse H22 liver cancer; [12]
  Inhibition efficiency: 32.38
  Tumour weight (g) X ± SD: 2.13 ± 0.20 g
Mouse H22 liver cancer; [13]
  Inhibition efficiency: 44.12
  Tumour weight (g) X ± SD: 1.76 ± 0.08 g
Mouse H22 liver cancer; [14]
  Inhibition efficiency: 55.02
  Tumour weight (g) X ± SD: 1.48 ± 0.11 g
Mouse H22 liver cancer; [15]
  Inhibition efficiency: 31.1
  Tumour weight (g) X ± SD: 2.06 ± 0.18 g
Mouse H22 liver cancer; [16]
  Inhibition efficiency: 39.13
  Tumour weight (g) X ± SD: 1.82 ± 0.19 g
Mouse H22 liver cancer; [17]
  Inhibition efficiency: 46.15
  Tumour weight (g) X ± SD: 1.61 ± 0.18 g
Mouse H22 liver cancer; [18]
  Inhibition efficiency: 27.13
  Tumour weight (g) X ± SD: 2.31 ± 0.21 g
Mouse H22 liver cancer; [19]
  Inhibition efficiency: 32.09
  Tumour weight (g) X ± SD: 2.14 ± 0.20 g
Mouse H22 liver cancer; [20]
  Inhibition efficiency: 38.17
  Tumour weight (g) X ± SD: 1.96 ± 0.16 g
Mouse H22 liver cancer; [21]
  Inhibition efficiency: 36.07
  Tumour weight (g) X ± SD: 1.95 ± 0.12 g
Mouse H22 liver cancer; [22]
  Inhibition efficiency: 51.05
  Tumour weight (g) X ± SD: 1.49 ± 0.12 g
Mouse H22 liver cancer; [23]
  Inhibition efficiency: 57.05
  Tumour weight (g) X ± SD: 1.31 ± 0.12 g
Mouse Lewis lung cancer; [12]
  Inhibition efficiency: 40.76
  Tumour weight (g) X ± SD: 1.69 ± 0.11 g
Mouse Lewis lung cancer; [13]
  Inhibition efficiency: 47.37
  Tumour weight (g) X ± SD: 1.50 ± 0.14 g
Mouse Lewis lung cancer; [14]
  Inhibition efficiency: 59.30
  Tumour weight (g) X ± SD: 1.16 ± 0.16 g
Mouse Lewis lung cancer; lyophilized preparation, 5 mg/kg/d ivx10qd
  Tumour weight (g) X ± SD: 1.56 ± 0.14 g
Mouse Lewis lung cancer; lyophilized preparation, 10 mg/kg/d ivx10qd
  Tumour weight (g) X ± SD: 1.34 ± 0.18 g
Mouse Lewis lung cancer; lyophilized preparation, 15 mg/kg/d ivx10qd
  Tumour weight (g) X ± SD: 1.20 ± 0.20 g
Mouse Lewis lung cancer; lyophilized preparation, hypodermic inoculation, 5 mg/kg/d ivx10qd
  Inhibition efficiency: 36.33
Mouse Lewis lung cancer; lyophilized preparation, hypodermic inoculation, 10 mg/kg/d ivx10qd
  Inhibition efficiency: 45.31
Mouse Lewis lung cancer; lyophilized preparation, hypodermic inoculation, 15 mg/kg/d ivx10qd
  Inhibition efficiency: 51.20
[9]; 30 mg/kg/day
  Animal body weight (g) Start: 19.0 g
  Animal body weight (g) end: 26.0 g
[9]; 60 mg/kg/day
  Animal body weight (g) Start: 19.3 g
  Animal body weight (g) end: 26.3 g
[9]; 90 mg/kg/day
  Animal body weight (g) Start: 19.1 g
  Animal body weight (g) end: 25.7 g
[9]; iv, 10 mg/kg/day
  Animal body weight (g) end: 25.9 g
[10]; mouse, in vivo, 5 mg/kg/day
  Animal body weight (g) Start: 18.1 g
  Animal body weight (g) end: 20.5 g
[10]; mouse, in vivo, 10 mg/kg/day
  Animal body weight (g) Start: 17.7 g
  Animal body weight (g) end: 21.1 g
[10]; mouse, in vivo, 15 mg/kg/day
  Animal body weight (g) Start: 18.0 g
  Animal body weight (g) end: 20.7 g
[10]; [24]
  Animal body weight (g) Start: 19.3 g
  Animal body weight (g) end: 22.4 g
[10]; [25]
  Animal body weight (g) Start: 19.1 g
  Animal body weight (g) end: 22.9 g
[10]; [26]
  Animal body weight (g) Start: 19.5 g
  Animal body weight (g) end: 22.1 g

## N.N.[Cl][Pt][Cl] [DDP(Cisplatin), Cisplatin, reference compound]
[1]
  Ic 50 for the growth of tumour cells: 0.695 µg/mL
[2]; human lung cancer cells
  Ic 50 for growth of the human lung cancer cells: 1.6 µg/mL
[3]
  Ic 50 for the growth of tumour cells: 0.89 µg/mL
[4]
  Ic 50 for the growth of tumour cells: 2.31 µg/mL
[5]
  Ic 50 for the growth of tumour cells: 0.21 µg/mL
[6]; HEP-2
  Ic 50 for the growth of tumour cells: 0.3 µg/mL
[7]
  Ic 50 for the growth of tumour cells: 1.72 µg/mL
[8]
  Ic 50 for the growth of tumour cells: 1.85 µg/mL
Mouse Lewis lung cancer; [27]
  Inhibition efficiency: 92.98
  Tumour weight (g) X ± SD: 0.172 ± 0.06 g
[10]; Table VI, 7 mg/kg/d Ipx2, the first, third days, end
  Animal body weight (g) end: 18.1 g
[10]; Table VI, 7 mg/kg/d Ipx2, the first, third days, start
  Animal body weight (g) Start: 18.4 g
